{"source": "patent US20240099989A1", "about": "“AGENT FOR PREVENTING OR IMPROVING PERIPHERAL NEUROPATHY” (KINKI UNIVERSITY, priority 2021, published 2024)", "system": "Diabetic Peripheral Neuropathy in a Mouse Induced by Streptozotocin", "experiment": "Cold plate test (4° C.), diabetic peripheral neuropathy induced by streptozotocin", "assay_type": "in vivo, C57BL/6J mice", "settings": "time course", "protocol": "Six to seven-week-old male C57BL/6J mice were used for the tests as with Example 7. All the mice were acclimated for seven days after arrival. Then, the mice were grouped into the following four groups: a control group, a group receiving streptozotocin, a group receiving 1 mg/kg xylitol, and a group receiving streptozotocin+1 mg/kg xylitol. Each group consisted of nine mice.\nThe mice in the group receiving 1 mg/kg xylitol were orally administered with xylitol at a dose of 1 mg/kg daily from Day 0. The mice in the group receiving streptozotocin+1 mg/kg xylitol were orally administered with xylitol at a dose of 1 mg/kg daily from Day 21 of administration.\nA cold plate test was performed to examine the effect due to xylitol on paresthesia that is caused by a low temperature stimulus. The mice in the four groups described in (1) of the present example (Example 8) were placed on a cold plate set at 4° C., and withdrawal response time (latent time) was measured. It is presumed that a shorter withdrawal response time (latent time) reflects a greater degree of shunning the low temperature stimulus by the cold plate. […]\nOn Day 8 of acclimation, the mice in the group receiving streptozotocin and the group receiving streptozotocin+5 mg/kg D-threitol were administered with streptozotocin at a dose of 200 mg/kg. A massive dose of streptozotocin destroys pancreatic cells in the mice. As a result, insulin is no longer secreted, and thus, diabetes can be developed in the mice. This day was designated as the first day of the administration (Day 0). Note that streptozotocin was administered only on the first day of administration.\nThe mice in the group receiving 5 mg/kg D-threitol and the group receiving streptozotocin+5 mg/kg D-threitol were orally administered with D-threitol at a dose of 5 mg/kg daily from Day 0. […]\nThe mice in the group receiving 5 mg/kg D-threitol were orally administered with D-threitol at a dose of 5 mg/kg daily from Day 0. The mice in the group receiving streptozotocin+5 mg/kg D-threitol were orally administered with D-threitol at a dose of 5 mg/kg daily from Day 21 of administration.\n(§1) A cold plate test was performed to examine the effect of D-threitol on paresthesia that is caused by a low temperature stimulus. The mice in the four groups described in (1) of the present example (Example 10) were placed on a cold plate set at 4° C., and withdrawal response time (latent time) was measured. […]\nas §1, with “L-talitol” for “D-threitol”, “11)” for “10)”", "key": {"[1]": {"settings": "streptozotocin 200 mg/kg + 5 mg/kg orally daily from Day 21 (therapy)"}}, "data": [{"compound": "OC[C@@H](O)[C@H](O)CO", "note": "[D-threitol]", "values": [{"measurement": "withdrawal response time (latent time)", "setting": "[1]", "value": "extended from Day 21 onwards"}]}, {"compound": "OC[C@H](O)[C@H](O)[C@H](O)[C@@H](O)CO", "note": "[L-talitol]", "values": [{"measurement": "withdrawal response time (latent time)", "setting": "[1]", "value": "extended from Day 21 onwards"}]}, {"compound": "OC[C@@H](O)[C@H](O)[C@@H](O)CO", "note": "[xylitol]", "values": [{"measurement": "withdrawal response time (latent time)", "setting": "streptozotocin 200 mg/kg + 1 mg/kg orally daily from Day 21 (therapy)", "value": "extended from Day 21 onwards"}]}]}
